Data on two molecules can be found in US9487462B2, “Inhibitors of matrix metalloproteinases” (PharmaHungary 2000 Kft., priority 2010, dated 2016).

A short description of series [1]: Cytotoxicity, alamarBlue viability, MRC-5. The series is classed as cell-based. The following applies: human, MRC-5 fibroblast cells, 48 hours incubation, read-out: MRC-5 LC50. In outline:
(§1)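 Cells exposed to compound dilutions for 48 hours, then alamarBlue added for 4 hours; fluorescence read at ex 540/em 590 nm. IC50 from six concentrations run in duplicate.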
Background: Alamar Blue is a resazurin reagent that responds to reducing activity.

A short description of series [2]: Cytotoxicity, alamarBlue viability, HCT116. The series is classed as cell-based. The following applies: human, HCT116 colon tumor cells, 48 hours incubation, read-out: HCT116 LC50. The method in brief:
as §1

The target of another series is MMP-2 (Rattus norvegicus (Rat), UniProt P33436). Put plainly: In vitro zymography assay (gelatin), MMP-2. The class given is biochemical. The note with it: % ± SD. The procedure:
MMP-2 and MMP-9 enzymes were isolated from rat hearts and from rat spleen while human, recombinant MMP-1 and MMP-13 enzymes used were commercial. MMP-2, -9, -13 enzymes were separated by electrophoresis during non-reducing conditions on 8% SDS-polyacrylamide gels copolymerized with 2 mg/ml gelatin from porcine skin (Sigma Aldrich) while MMP-1 was separated under the same conditions on 8% SDS-polyacrylamide gels copolymerized with 2 mg/ml casein (Sigma Aldrich). […] In case of MMP-13 p-aminophenylmercuric acetate (APMA) was used for enzyme activation at 37° C. for 30 min. After electrophoresis, gels were washed in 2.5% Triton-X 100 with agitation and then incubated for 20 hrs at 37° C. in enzyme incubation buffer (50 mM Tris-HCl, pH 7.5, containing 5 mM CaCl2, 200 mM NaCl) with or without MMP inhibitor. Zymographic gels were stained in Coomassie Brilliant Blue R-250 and de-stained. Gelatin and casein zymograms were scanned. MMP activity is detected as a white zone on a blue background and the clear bands in the gel can be quantified by densitometry. The obtained density values were measured and % inhibition values calculated (Kupai et al., 2010). The table below summarizes the prescreen inhibition values determined for different MMP inhibitors on MMP1, -2, -9, -13.

The next series deals with MMP9 (Homo sapiens, UniProt P14780). Description: MMP activity assay (fluorogenic substrate), MMP9 catalytic domain. The following applies: Table 2. The class given is biochemical.
The next series has as its system isolated rat hearts. Put plainly: Myocardial ischemia/reperfusion injury in isolated rat hearts (Langendorff), infarct size. The following applies: 5 μM final concentration; isolated rat hearts, 30 min global ischemia, 120 min reperfusion. The class given is ex vivo. The procedure:
Male Wistar rats were anesthetized with diethyl ether, heparin (500 U/kg i.v.) was administered and hearts were isolated. The hearts were assigned to three groups: (i) DMSO control and (ii) Compound 1 (1 μM) and (iii) Compound 1 (10 μM) treated. Stock solution of inhibitors was prepared in DMSO. The final DMSO concentration in all assays was 0.1%. Hearts were perfused in Langendorff mode with constant pressure (100 H2O cm) for 20 min at 37° C. then exposed to global ischemia for 30 min followed by 120 min of reperfusion. The DMSO and inhibitors were dissolved in Krebs-Henseleit buffer and administered only before onset of ischemia for 20 min (pretreatment) and during the first 30 min of reperfusion (FIG. 6). At the end of reperfusion, infarct size (IS) was defined by triphenyltetrazolium chloride staining (Csonka et al., 2010).
In separate experiments hearts were perfused to test cardioprotective effect of ALBH-know compound at 5 μM final concentration. The same protocol was used as mentioned above.

Another series concerns the target MMP13 (Homo sapiens (Human), UniProt P45452). Put plainly: MMP activity assay (fluorogenic substrate), MMP13 catalytic domain. The class given is biochemical. The following applies: Table 2; read-out: MMP13 IC50.
The target in another series is MMP1 (Homo sapiens (Human), UniProt P03956). Description: MMP activity assay (fluorogenic substrate), MMP1. The series is classed as biochemical. The note with it: Table 2; read-out: MM1 IC50.
MMP1, sequence (P03956 100-469, species assumed): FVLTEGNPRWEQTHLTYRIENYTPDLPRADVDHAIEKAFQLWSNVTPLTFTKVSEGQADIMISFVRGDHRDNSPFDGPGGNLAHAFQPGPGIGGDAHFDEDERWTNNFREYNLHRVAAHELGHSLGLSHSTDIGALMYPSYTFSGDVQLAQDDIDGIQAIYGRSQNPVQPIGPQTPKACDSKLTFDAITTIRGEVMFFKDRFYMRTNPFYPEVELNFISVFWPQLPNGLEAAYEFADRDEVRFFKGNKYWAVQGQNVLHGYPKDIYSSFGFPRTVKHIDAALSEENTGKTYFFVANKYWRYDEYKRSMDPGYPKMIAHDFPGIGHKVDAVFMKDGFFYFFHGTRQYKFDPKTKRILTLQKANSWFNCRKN
Series [3] concerns healthy human fibroblast cell line MRC-5. Put plainly: Cytotoxicity, alamarBlue viability, MRC-5. The class given is cell-based. The note with it: 48 hours incubation, read-out: MRC-5 LC50. The method in brief:
as §1

In series [4] the test system is human colon tumor cell line HCT116. Put plainly: Cytotoxicity, alamarBlue viability, HCT116. The series is classed as cell-based. The note with it: 48 hours incubation, read-out: HCT116 LC50. The method in brief: as §1
The next series addresses MMP2 (Homo sapiens, UniProt P08253). Put plainly: MMP activity assay (fluorogenic substrate), MMP2 catalytic domain. The class given is biochemical. The following applies: Table 2; read-out: MMP2 IC50.

Structures can show the parent of a compound that is named as a salt.

MMP-2, sequence (P33436 110-662): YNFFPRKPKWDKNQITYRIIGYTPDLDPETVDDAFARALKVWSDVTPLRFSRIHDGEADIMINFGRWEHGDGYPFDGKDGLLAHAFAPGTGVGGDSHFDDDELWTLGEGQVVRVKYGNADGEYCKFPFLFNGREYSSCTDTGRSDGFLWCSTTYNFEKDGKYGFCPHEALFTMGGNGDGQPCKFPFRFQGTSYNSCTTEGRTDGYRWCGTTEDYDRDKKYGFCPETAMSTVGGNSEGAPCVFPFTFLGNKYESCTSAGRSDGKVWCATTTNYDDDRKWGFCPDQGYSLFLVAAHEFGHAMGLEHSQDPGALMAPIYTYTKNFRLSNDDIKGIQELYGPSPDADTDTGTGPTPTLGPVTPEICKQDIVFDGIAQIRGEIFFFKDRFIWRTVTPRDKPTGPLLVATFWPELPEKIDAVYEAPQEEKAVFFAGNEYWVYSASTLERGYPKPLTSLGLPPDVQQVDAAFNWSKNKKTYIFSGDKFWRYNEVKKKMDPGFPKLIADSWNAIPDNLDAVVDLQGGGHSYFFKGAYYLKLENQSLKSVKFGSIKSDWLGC

The inhibition is how much of the control response was suppressed. The IC50 is the concentration needed to halve the response being measured. `O=C(O)c1csc(CN(Cc2ccc(F)cc2)Cc2ccc(OCc3ccccc3)cc2)n1` [ALBH-known, 2-[({[4-(benzyloxy)phenyl]methyl}[(4-fluorophenyl)methyl]amino)methyl]-1,3-thiazole-4-carboxylic acid, reference compound]: the values for the CC50 at 48 h in [1] and in series [2] were 33 µM and 3.5 µM, respectively. The “% inhibition MMP-2 (72 kDa)” value at MMP-2 (1 μM) is listed as “No inhibition”. Also, the inhibition at 100 µM at MMP-2 (100 μM, read-out: % inhibition MMP-2 (72 kDa)) turned out to be 100%. Moreover, the IC50 was determined as 15 µM against MMP9, 1.62 µM on MMP13 and 3.6 µM on MMP1. For the same molecule, the “reduction of myocardial IS as compared to vehicle” value in the series on isolated rat hearts was found to be 72.01±4.96%.

For `O=C(O)c1c[nH]c(CN(Cc2ccc(F)cc2)Cc2ccc(OCc3ccccc3)cc2)n1` [Compound 30 HCl, 2-[({[4-(Benzyloxy)phenyl]methyl}[(4-fluorophenyl)methyl]amino)methyl]-1H-imidazole-4-carboxylic acid], the CC50 came out at 15 µM in series [3] and 5.6 µM in series [4]. Moreover, the IC50 on MMP2 stood at 15 µM; against MMP9 it was 100 µM; on MMP13, 3.3 µM; on MMP1, 33 µM.
